Here are results for 33 molecules from US7026339B2, “Inhibitors of HCV NS5B polymerase” (priority 2003, dated 2006).

Where only a bound is given, the exact number is not on record here.

This assay relates to HuH-7 replicon cells 5–15 and 9–13 (HCV replication). The assay is described as follows: Inhibition of viral replication in HuH-7 replicon cells (HCV RNA / GAPDH RNA by multiplex RT-PCR). The conditions noted are these: Hepatitis C virus, 72 h; inhibiting 50% of replication; HuH-7 replicon cells, 3 days; read-out: IC50. The assay is classed as cell-based. Put shortly: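 Replicon cells seeded at 7×10^3 cells/well, grown 24 h, then exposed 3 days at 37 °C to compound at final 100 μM–1 μM (1% DMSO). Multiplex TaqMan RT-PCR on total RNA quantified HCV 5′-UTR and GAPDH RNA against a standard curve; HCV/GAPDH ratio reported as percent of untreated control.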
(In general: A replicon is a self-replicating genome or part of one, used to study replication in cells.)
In the case of `O=C(Cc1ccc(Cl)nc1)N/N=C/c1ccccc1OS(=O)(=O)c1ccc(C(F)(F)F)cc1` [Compound 63, 2-((E)-{2-[2-(6-chloropyridin-3-yl)acetyl]hydrazono}methyl)phenyl 4-(trifluoromethyl)benzenesulfonate], the IC50 is less than 5 µM. With `O=C(N/N=C/c1ccccc1OS(=O)(=O)c1ccc(C(F)(F)F)cc1)C1CCN(Cc2ccccc2)C1=O` (stereo not drawn) [Compound 91, 2-((E)-{2-[(1-benzyl-2-oxopyrrolidin-3-yl)carbonyl]hydrazono}methyl)phenyl 4-(trifluoromethyl)benzenesulfonate], the IC50 was more than 50 µM. The value for `O=C(Cc1c(F)cccc1F)N/N=C/c1ccccc1OS(=O)(=O)c1ccc(C(F)(F)F)cc1` [Compound 28, 2-((E)-{2-[2-(2,6-difluorophenyl)acetyl]hydrazono}methyl)-phenyl 4-(trifluoromethyl)benzenesulfonate] was less than 5 µM; that for `COc1cccc(CC(=O)N/N=C/c2cccc(OC)c2OS(=O)(=O)c2ccc(C(F)(F)F)cc2)c1` [Compound 165, 2-methoxy-6-((E)-{[(3-methoxyphenyl)acetyl]hydrazono}methyl)-phenyl 4-(trifluoromethyl)-benzenesulfonate] was less than 5 µM.

Consider `COc1cccc(CCC(=O)N/N=C/c2ccccc2OS(=O)(=O)c2ccc(C(F)(F)F)cc2)c1` [Compound 58, 2-((E)-{2-[3-(3-methoxyphenyl)propanoyl]hydrazono}-methyl)phenyl 4-(trifluoromethyl)benzenesulfonate], for which the IC50 was more than 50 µM. For the molecule `COc1cccc(CC(=O)N/N=C/c2ccccc2OS(=O)(=O)c2cc(OC)ccc2OC)c1` [Compound 153, 2-((E)-{2-[2-(3-methoxyphenyl)acetyl]hydrazono}methyl)-phenyl 2,5-dimethoxybenzenesulfonate], the IC50 was less than 5 µM. As to `COc1cccc(CC(=O)N/N=C/c2ccccc2OS(=O)(=O)c2ccc3nsnc3c2)c1` [Compound 182, 2-((E)-{2-[2-(3-methoxyphenyl)acetyl]hydrazono}methyl)-phenyl 2,1,3-benzothiadiazole-5-sulfonate], the IC50 is less than 5 µM. As for `COc1cccc(CC(=O)N/N=C/c2cccnc2OS(=O)(=O)c2ccc(C)cc2)c1` [Compound 181, 3-((E)-{2-[2-(3-methoxyphenyl)acetyl]hydrazono}methyl)-pyridin-2-yl 4-methylbenzenesulfonate], the IC50 lay within 5 to 50 µM. As to `O=C(Cn1c(Br)nc(Cl)c1Cl)N/N=C/c1ccccc1OS(=O)(=O)c1ccc(C(F)(F)F)cc1` [Compound 107, 2-((E)-{2-[2-(2-bromo-4,5-dichloro-1H-imidazol-1-yl)acetyl]hydrazono}methyl)phenyl 4-(trifluoromethyl)benzenesulfonate], the IC50 was more than 50 µM. As to `O=C(N/N=C/c1ccccc1OS(=O)(=O)c1ccc(C(F)(F)F)cc1)c1ccccc1Br` [Compound 88, 2-{(E)-[2-(2-bromobenzoyl)hydrazono]methyl}phenyl4-(trifluoromethyl)benzenesulfonate], the IC50 is less than 5 µM.

For `COc1cc(CC(=O)N/N=C/c2ccccc2OS(=O)(=O)c2ccc(C(F)(F)F)cc2)cc(OC)c1` [Compound 50, 2-((E)-{2-[2-(3,5-dimethoxyphenyl)acetyl]hydrazono}methyl)-phenyl 4-(trifluoromethyl)benzenesulfonate], the IC50 is less than 5 µM. Regarding `COc1ccc(CC(=O)N/N=C/c2ccccc2OS(=O)(=O)c2ccc(C(F)(F)F)cc2)cc1OC` [Compound 150, 2-((E)-{2-[2-(3,4-dimethoxyphenyl)acetyl]hydrazono}methyl)-phenyl 4-(trifluoromethyl)benzenesulfonate], the IC50 was less than 5 µM. On to `COc1cccc(CC(=O)N/N=C/c2c(C)cccc2OS(=O)(=O)c2ccc(C(F)(F)F)cc2)c1` [Compound 203, 2-((E)-{[(3-methoxyphenyl)acetyl]hydrazono}methyl)-3-methylphenyl 4-(trifluoromethyl)benzenesulfonate], for which the IC50 was less than 5 µM. Consider `O=C(Cc1c(F)c(F)c(F)c(F)c1F)N/N=C/c1ccccc1OS(=O)(=O)c1ccc(C(F)(F)F)cc1` [Compound 12, 2-((E)-{2-[2-(pentafluorophenyl)acetyl]hydrazono}-methyl)phenyl 4-(trifluoromethyl)benzenesulfonate], for which the IC50 was more than 50 µM. For the molecule `COc1cccc(OCC(=O)N/N=C/c2ccccc2OS(=O)(=O)c2ccc(C(F)(F)F)cc2)c1` [Compound 53, 2-((E)-{2-[2-(3-methoxyphenoxy)acetyl]hydrazono}methyl)-phenyl 4-(trifluoromethyl)benzenesulfonate], the IC50 is less than 5 µM. For `O=C(Cc1cccc(Cl)c1)N/N=C/c1c(F)cccc1OS(=O)(=O)c1ccc(C(F)(F)F)cc1` [Compound 206, 2-((E)-{[(3-chlorophenyl)acetyl]hydrazono}methyl)-3-fluorophenyl 4-(trifluoromethyl)benzenesulfonate], the IC50 was less than 5 µM. For `COc1cccc(CC(=O)N/N=C/c2ccccc2OCc2ccc(C)cc2)c1` [Compound 236, 2-(3-methoxyphenyl)-N′-((1E)-{2-[(4-methylbenzyl)oxy]phenyl}methylene)-acetohydrazide], the IC50 is more than 50 µM. As for `CC(C)(C)c1ccc(COc2ccccc2/C=N/NC(=O)Cc2cccnc2)cc1` [Compound 237, N′-((1E)-{2-[(4-tert-butylbenzyl)oxy]phenyl}methylene)-2-pyridin-3-ylacetohydrazide], the IC50 was more than 50 µM.

With `O=C(Cc1ccccc1)N/N=C/c1ccccc1OS(=O)(=O)c1cc(Cl)ccc1Cl` [Compound 139, 2-{(E)-[2-(2-phenylacetyl)hydrazono]methyl}phenyl2,5-dichlorobenzenesulfonate], the IC50 is more than 50 µM.

For the molecule `COc1cccc(CC(=O)N/N=C/c2cc(F)ccc2OS(=O)(=O)c2ccc(C)cc2)c1` [Compound 158, 4-fluoro-2-((E)-{[(3-methoxyphenyl)acetyl]hydrazono}methyl)-phenyl 4-methylbenzenesulfonate], the IC50 is less than 5 µM. For `O=C(CCCCc1ccccc1)N/N=C/c1ccccc1OS(=O)(=O)c1ccc(C(F)(F)F)cc1` [Compound 47, 2-{(E)-[2-(5-phenylpentanoyl)hydrazono]methyl}phenyl4-(trifluoromethyl)benzenesulfonate], the IC50 lay in the range of 5 to 50 µM. In the case of `O=C(Cc1ccccc1Br)N/N=C/c1ccccc1OS(=O)(=O)c1ccc(C(F)(F)F)cc1` [Compound 40, 2-((E)-{2-[2-(2-bromophenyl)acetyl]hydrazono}methyl)-phenyl 4-(trifluoromethyl)benzenesulfonate], the half-maximal inhibitory concentration (IC50) is less than 5 µM. On to `COc1cccc(CC(=O)N/N=C/c2ncccc2OS(=O)(=O)c2ccc(C(F)(F)F)cc2)c1` [Compound 214, 2-((E)-{2-[2-(3-methoxyphenyl)acetyl]hydrazono}methyl)-pyridin-3-yl 4-(trifluoromethyl)benzenesulfonate], for which the IC50 was in the range of 5 to 50 µM. The value for `C/C(=N\NC(=O)Cc1ccccc1)c1ccccc1OS(=O)(=O)c1ccc(C(F)(F)F)cc1` [Compound 219, 2-[(1E)-N-(phenylacetyl)ethanehydrazonoyl]phenyl4-(trifluoromethyl)benzenesulfonate] was more than 50 µM.

For `COc1cccc(CC(=O)N/N=C/c2ccccc2S(=O)(=O)c2ccc(C)cc2)c1` [Compound 239, 2-(3-methoxyphenyl)-N′-((1E)-{2-[(4-methylphenyl)sulfonyl]phenyl}methylene)-acetohydrazide], the IC50 was 5 to 50 µM. For `CN(c1ccccc1/C=N/NC(=O)Cc1c[nH]cn1)S(=O)(=O)c1ccc(C(F)(F)F)cc1` [Compound 249, N-(2-{(E)-[(1H-imidazol-4-ylacetyl)hydrazono]methyl}phenyl)-N-methyl-4-(trifluoromethyl)benzenesulfonamide], the IC50 is less than 5 µM. Consider `COc1cccc(CC(=O)N/N=C/c2ccccc2OS(=O)(=O)c2ccc(-c3cc(C(F)(F)F)on3)s2)c1` [Compound 192, 2-((E)-{2-[2-(3-methoxyphenyl)acetyl]hydrazono}methyl)-phenyl 5-[5-(trifluoromethyl)isoxazol-3-yl]thiophene-2-sulfonate], for which the IC50 was less than 5 µM.

Consider `CSc1ccc(CC(=O)N/N=C/c2ccccc2OS(=O)(=O)c2ccc(C(F)(F)F)cc2)cc1` [Compound 26, 2-[(E)-(2-{2-[4-(methylthio)phenyl]acetyl}hydrazono)methyl]-phenyl 4-(trifluoromethyl)benzenesulfonate], for which the IC50 is less than 5 µM. The value for `O=C(Cc1ccc(F)c(F)c1F)N/N=C/c1ccccc1OS(=O)(=O)c1ccc(C(F)(F)F)cc1` [Compound 16, 2-((E)-{2-[2-(2,3,4-trifluorophenyl)acetyl]hydrazono}methyl)-phenyl 4-(trifluoromethyl)benzenesulfonate] was less than 5 µM; that for `COc1cccc(CC(=O)N/N=C/c2c(Br)ccc(OC)c2OS(=O)(=O)c2ccc(C(F)(F)F)cc2)c1` [Compound 169, 3-bromo-6-methoxy-2-((E)-{[(3-methoxyphenyl)acetyl]hydrazono}methyl)-phenyl 4-(trifluoromethyl)benzenesulfonate] was less than 5 µM. As to `COc1cccc(CNc2cccc(CC(=O)N/N=C/c3ccccc3OS(=O)(=O)c3ccc(C(F)(F)F)cc3)c2)c1` [Compound 96, 2-{(E)-[2-(2-{3-[(3-methoxybenzyl)amino]phenyl}acetyl)hydrazono]methyl}phenyl 4-(trifluoromethyl)benzenesulfonate], the IC50 is more than 50 µM. The value for `COc1cccc(CC(=O)N/N=C/c2c(OS(=O)(=O)c3ccc(C)cc3)ccc3ccccc23)c1` [Compound 162, 1-((E)-{2-[2-(3-methoxyphenyl)acetyl]hydrazono}methyl)-2-naphthyl 4-methylbenzenesulfonate] was 5 to 50 µM; that for `O=C(Cc1ccc(Cl)c(Cl)c1)N/N=C/c1ccccc1OS(=O)(=O)c1ccc(C(F)(F)F)cc1` [Compound 38, 2-((E)-{2-[2-(3,4-dichlorophenyl)acetyl]hydrazono}methyl)-phenyl 4-(trifluoromethyl)benzenesulfonate] was less than 5 µM.

What is called IC50 is the point on the concentration scale where inhibition reaches its midpoint.
